According to publication PMC10803553 (Frontiers in Oncology, 2024):
“Also recorded” adds a separate entry of the source.

How the values were obtained:
EML4-ALK F1174S NSCLC = settings: one NSCLC patient, after resistance to crizotinib; alectinib 6 months, ceritinib 3 months, brigatinib 1 month
EML4-ALK (F1174S) V3a = biological target: T1, EML4-ALK (F1174S) V3a (Homo sapiens, UniProt Q9HC35+Q9UM73, F1174S); settings: NL20 cells, 0 nM to 1000 nM, pALK-Y1604 readout
T1 sequence (Q9HC35+Q9UM73 with tags, fused parts or gaps Q9UM73:F1174S): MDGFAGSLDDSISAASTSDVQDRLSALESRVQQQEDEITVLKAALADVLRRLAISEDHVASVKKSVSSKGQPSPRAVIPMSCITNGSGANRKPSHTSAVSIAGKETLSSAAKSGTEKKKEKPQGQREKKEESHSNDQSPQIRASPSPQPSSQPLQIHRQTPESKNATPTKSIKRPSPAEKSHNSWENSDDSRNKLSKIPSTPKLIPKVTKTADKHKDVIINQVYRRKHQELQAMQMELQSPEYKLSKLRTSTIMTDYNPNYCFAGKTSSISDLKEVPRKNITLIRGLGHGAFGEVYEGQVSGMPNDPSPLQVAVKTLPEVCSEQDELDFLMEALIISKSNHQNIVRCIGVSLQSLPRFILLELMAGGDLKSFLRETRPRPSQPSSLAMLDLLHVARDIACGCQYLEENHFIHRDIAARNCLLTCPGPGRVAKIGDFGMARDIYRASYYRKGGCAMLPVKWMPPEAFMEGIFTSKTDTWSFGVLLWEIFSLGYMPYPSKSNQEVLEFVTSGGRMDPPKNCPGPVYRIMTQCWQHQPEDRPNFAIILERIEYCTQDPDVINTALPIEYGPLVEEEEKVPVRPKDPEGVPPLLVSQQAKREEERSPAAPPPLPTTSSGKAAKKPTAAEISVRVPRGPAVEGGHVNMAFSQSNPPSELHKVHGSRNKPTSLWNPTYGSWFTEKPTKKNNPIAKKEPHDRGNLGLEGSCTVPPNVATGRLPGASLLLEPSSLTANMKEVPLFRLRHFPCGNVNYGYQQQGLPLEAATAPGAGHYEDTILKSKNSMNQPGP
Description: (§1) SK-N-AS cells were transfected with Lipofectamine 3000 (Invitrogen, Carlsbad. CA) following the manufacturer’s instruction. […] After 24-36 hours culture, cells were treated with serial dilutions of the indicated inhibitors for 2 hours.
Cells were washed with ice-cold PBS prior to harvest in lysis buffer [25 mM of Tris-Cl, pH7.5, 150 mM of NaCl, 1% (v/v) Triton X-100, 1 mM of DTT, and protease inhibitor cocktail]. Cell lysates were clarified by centrifugation at 14,000 rpm for 15 minutes at 4°C. Samples were boiled in 1x SDS sample buffer and analyzed by immunoblotting. Enhanced chemiluminescence (ECL) and fluorescence blot images were taken with LI-COR Odyssey FC instrument and Image Studio 5.2 software (Lincoln, NE). […] The intensity of different protein bands was quantified with Image Studio Lite 5.2 software (Lincoln, NE). Ratios were shown either directly or normalized. […] GraphPad Prism 6.0 was used to calculate IC50 values by fitting data to a log (inhibitor concentration) vs. normalized response (variable slope) equation.
We therefore tested the sensitivity of these EML4-ALK mutants to ALK inhibitors. […] Dose-dependent ALK activity responses were followed with anti-pALK-Y1604 as readout.
Dose-dependent ALK activity responses were followed employing anti-pALK-Y1604 as readout.

EML4-ALK V1 mRNA = assay: RT-PCR for EML4-ALK V1 mRNA after ALK inhibition in DFCI032 cells; type: cell-based, human; settings: 30 nM lorlatinib, 24 hours
Description: Reverse transcription was performed with the SuperScript IV First-Strand Synthesis System (Invitrogen, Carlsbad. CA) following the manufacturer’s protocol. PCR was performed with DreamTaq Hot Start Green PCR Master Mix (ThermoScientific, Waltham, MA). The PCR primers used for ALK were 5’-[…]-3’ and 5’-[…]-3’; and the primers for Actin were 5’-[…]-3’ and 5’-[…]-3’.
as §1

[1] = system: wildtype and F1174S mutant EML4-ALK V3a and EML4-ALK V3b; assay: Dose-dependent pALK-Y1604 response to crizotinib or lorlatinib in NL20 cells, wildtype and F1174S mutant V3a/b (immunoblot, qualitative); type: cell-based, human; settings: 0 nM to 1000 nM, 2 hours

Row | SMILES | clinical response to ALK TKI (EML4-ALK F1174S NSCLC) | sensitivity of EML4-ALK (F1174S) V3a to ALK inhibition relative to EML4-ALK V3a (qualitative) (EML4-ALK (F1174S) V3a) | ALK mRNA levels in response to treatment (EML4-ALK V1 mRNA) | inhibition of ALK-Y1604 phosphorylation (qualitative) [1]
1 | Cc1cc(Nc2ncc(Cl)c(Nc3ccccc3S(=O)(=O)C(C)C)n2)c(OC(C)C)cc1C1CCNCC1 [ceritinib] | no detectable response | more sensitive |  | 
2 | COc1cc(N2CCC(N3CCN(C)CC3)CC2)ccc1Nc1ncc(Cl)c(Nc2ccccc2P(C)(C)=O)n1 [brigatinib] | no detectable response | strongest effect; also recorded: more sensitive |  | 
3 | C[C@H]1Oc2cc(cnc2N)-c2c(nn(C)c2C#N)CN(C)C(=O)c2ccc(F)cc21 [lorlatinib] |  |  | decreased ALK mRNA levels | superior inhibition effect
